The assay addresses Envelope glycoprotein gp160 (Human immunodeficiency virus 1, UniProt Q6QLK5). Description: cell-free HIV fusion peptide-binding blockers – biochemical, uHTS, fluorescence dequenching, […] (AID 1986).

Activity calls are given as the source filed them. No stated cut-off is given here; in the data, actives have a measured IC50 and inactives only a lower limit.

Chain of Envelope glycoprotein gp160 (Q6QLK5 whole entry, the tested form may be a part): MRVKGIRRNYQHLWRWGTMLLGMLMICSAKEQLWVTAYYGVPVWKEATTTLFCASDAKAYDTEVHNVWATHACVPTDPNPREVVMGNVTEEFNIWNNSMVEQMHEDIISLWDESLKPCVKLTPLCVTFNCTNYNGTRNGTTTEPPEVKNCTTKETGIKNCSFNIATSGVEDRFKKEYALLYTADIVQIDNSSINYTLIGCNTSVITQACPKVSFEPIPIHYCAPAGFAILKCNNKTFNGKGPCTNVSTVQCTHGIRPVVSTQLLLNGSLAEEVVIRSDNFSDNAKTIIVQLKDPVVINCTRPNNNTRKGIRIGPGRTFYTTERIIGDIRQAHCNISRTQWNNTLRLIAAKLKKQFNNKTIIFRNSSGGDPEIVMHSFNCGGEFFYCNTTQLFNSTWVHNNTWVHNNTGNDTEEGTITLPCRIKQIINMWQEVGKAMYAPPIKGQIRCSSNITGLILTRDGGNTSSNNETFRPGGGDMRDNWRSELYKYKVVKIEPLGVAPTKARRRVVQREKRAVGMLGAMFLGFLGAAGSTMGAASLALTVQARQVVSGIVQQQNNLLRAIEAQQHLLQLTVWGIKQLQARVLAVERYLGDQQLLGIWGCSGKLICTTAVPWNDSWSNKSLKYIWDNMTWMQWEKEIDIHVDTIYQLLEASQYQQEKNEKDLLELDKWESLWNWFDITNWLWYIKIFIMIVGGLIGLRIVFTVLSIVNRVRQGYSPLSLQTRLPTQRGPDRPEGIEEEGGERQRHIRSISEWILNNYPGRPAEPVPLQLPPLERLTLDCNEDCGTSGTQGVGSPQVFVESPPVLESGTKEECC

In general, IC50 refers to the concentration needed to halve the response being measured. As for `CCCOc1ccc(C2C(C(=O)c3cc4ccccc4o3)=C(O)C(=O)N2c2cc(C)on2)cc1` (configuration not stated), the IC50 is 16.5 µM (active).
For the compound `COc1ccc(/C=N/NC(=O)c2[nH]c3ccc(Br)cc3c2-c2ccccc2)c(C(=O)O)c1OC`, the IC50 is 19.4 µM (active).

(Values after ChEMBL document CHEMBL1201862, “PubChem BioAssay data set” (2004).)
